Each molecule was assayed against human HPK1 (MAP4K1) (Homo sapiens (Human), UniProt Q92918) (assay: HPK1 IC50 Assay (TR-FRET peptide phosphorylation)). Settings: 0.15 nM HPK1, 10 μM ATP, 1 μM STK S1 peptide substrate; geometric mean.
Format: biochemical
Procedure: The enzymatic activity of human HPK1 (MAP4K1) was monitored in a biochemical assay in the presence or absence of compounds and using a synthetic peptide substrate. An increase in phosphorylation of the peptide by HPK1 was indicative of its kinase activity.
Recombinant HPK1 kinase domain produced via baculovirus infection of insect cells was obtained from Proteros (Proteros Biostructures #PR-0322) and was pre-activated in the presence of 2 mM ATP (Sigma-Aldrich, cat #GE27-2056-01) and 2 mM magnesium chloride for 16 hours at 4° C. The protein reaction mixture was then loaded to a desalting column (Thermo Fisher Scientific, Cat #89889) to remove excess ATP. HPK1 was eluted with buffer containing 20 mM Tris (2-Amino-2-(hydroxymethyl)propane-1,3-diol) pH 8.0, 150 mM NaCl, 2 mM dithiothreitol and 5% glycerol, and was frozen at −80° C. for later use. HPK1 dual phosphorylation was confirmed by mass spectrometry.
Ten nanoliters of test compounds dissolved in DMSO at various concentrations were dispensed into a 384-well ProxiPlate (PerkinElmer #6008289). Five microliters of a solution of recombinant HPK1 diluted in HPK1 kinase assay buffer (50 mM BES [N,N-Bis(2-hydroxyethyl)-2-aminoethanesulfonic acid], pH 7.0; 10 mM magnesium chloride; 0.01% Triton X-100; 1 mM dithiothreitol; 0.01% bovine serum albumin; 0.1 mM sodium orthovanadate) was added to the compound-containing plate and was incubated for 15 minutes at 25° C. Five microliters of a mixture of ATP (Sigma-Aldrich #A6559) and peptide substrate STK S1 (Cisbio #61ST1BLC) diluted in HPK1 kinase assay buffer was then added to start the reaction. Final concentrations were 0.15 nM for HPK1, 10 μM for ATP, and 1 μM for the STK S1 peptide substrate. The reaction mixture was incubated at 25° C. for 3 hours and was stopped with the addition of 10 μl of an EDTA (Ethylenediaminetetraacetic acid)-containing detection buffer (Cisbio #62SDBRDF) supplemented with Europium cryptate-labeled anti-phospho-serine/threonine antibodies (Cisbio #62ST1PEJ) and XL665-labeled streptavidin (Cisbio #610SAXLG). The mixture was incubated for 16 hours at room temperature and peptide phosphorylation was measured by time-resolved fluorescence energy transfer (665 nm/620 nm) on an Envision plate reader (PerkinElmer).
Data in Table 1 were normalized based on positive (staurosporine) and negative (DMSO) controls. Least squares curve fittings were performed using a four-parameter variable slope nonlinear regression model. IC50 is defined as the concentration of compound required to inhibit 50% of maximum phosphorylation. IC50 values from multiple experiments were averaged by geometric mean and the standard deviation was calculated.

human HPK1 (MAP4K1), sequence (Q92918 17-274): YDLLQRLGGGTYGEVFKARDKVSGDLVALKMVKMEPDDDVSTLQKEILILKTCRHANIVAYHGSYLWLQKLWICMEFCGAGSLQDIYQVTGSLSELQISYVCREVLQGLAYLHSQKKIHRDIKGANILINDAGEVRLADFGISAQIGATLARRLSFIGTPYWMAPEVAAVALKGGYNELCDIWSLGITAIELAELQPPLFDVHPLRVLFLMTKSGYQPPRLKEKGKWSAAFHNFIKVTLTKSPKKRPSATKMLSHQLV

IC50 | SMILES
0.1 nM | CCNC(=O)c1cc(Nc2nc(-c3cnc4c(c3)N([C@H]3C[C@@](C)(N5CCCC6(CC6)C5)C3)C(=O)C4(C)C)cc3ncn(C(C)C)c23)c(F)c(F)c1C [Example 285, 5-((6-(3,3-dimethyl-1-((1s,3s)-3-methyl-3-(5-azaspiro[2.5]octan-5-yl)cyclobutyl)-2-oxo-2,3-dihydro-1H-pyrrolo[3,2-b]pyridin-6-yl)-3-isopropyl-3H-imidazo[4,5-c]pyridin-4-yl)amino)-N-ethyl-3,4-difluoro-2-methylbenzamide]
0.06 nM | CCNC(=O)c1cc(Nc2nc(-c3cc4c(nc3F)C(C)(C)C(=O)N4[C@H]3C[C@@](C)(N4CCCCC4)C3)cc3ncn(C(C)C)c23)c(F)c(F)c1C [Example 271, N-ethyl-3,4-difluoro-5-((6-(5-fluoro-3,3-dimethyl-1-((1s,3s)-3-methyl-3-(piperidin-1-yl)cyclobutyl)-2-oxo-2,3-dihydro-1H-pyrrolo[3,2-b]pyridin-6-yl)-3-isopropyl-3H-imidazo[4,5-c]pyridin-4-yl)amino)-2-methylbenzamide]

Same assay, conditions: recombinant HPK1 kinase domain 0.15 nM, 10 μM ATP, 1 μM STK S1 peptide; geometric mean of multiple experiments

IC50 | SMILES
0.07 nM | Cc1ccc(Nc2nc(-c3ccc4c(c3)N([C@H]3C[C@@H](N5CCCCC5)C3)C(=O)C43CCOCC3)cc3ncn(C4CC4)c23)cc1C(N)=O [Example 126]
0.1 nM | CNC(=O)c1cc(Nc2nc(-c3ccc4c(c3)N([C@H]3C[C@@H](N5CCCCC5)C3)C(=O)C43CCOCC3)cc3ncn(C(C)C)c23)c(F)cc1C [Example 35]
0.2 nM | CC(=O)N1CCC2(CC1)C(=O)N([C@H]1C[C@@H](N3CCCCC3)C1)c1cc(-c3cc4ncn(C(C)C)c4c(Nc4cc(C(=O)NCC(C)C)c(C)cc4F)n3)ccc12 [Example 75]
0.06 nM | CCNC(=O)c1cc(Nc2nc(-c3cnc4c(c3)N([C@H]3C[C@@](C)(N5CCCCC5)C3)C(=O)C4(C)C)cc3ncn(C(C)C)c23)c(F)c(F)c1C [Example 222, 5-((6-(3,3-Dimethyl-1-((1s,3s)-3-methyl-3-(piperidin-1-yl)cyclobutyl)-2-oxo-2,3-dihydro-1H-pyrrolo[3,2-b]pyridin-6-yl)-3-isopropyl-3H-imidazo[4,5-c]pyridin-4-yl)amino)-N-ethyl-3,4-difluoro-2-methylbenzamide]
0.1 nM | CC[C@H](C)n1cnc2cc(-c3ccc4c(c3)N([C@H]3C[C@@H](N5CCCCC5)C3)C(=O)C43CCN(C(C)=O)CC3)nc(Nc3ccc(C)c(C(=O)NC)c3)c21 [Example 48]
0.1 nM | CNC(=O)c1cc(Nc2nc(-c3ccc4c(c3)N([C@H]3C[C@@H](N5CCC(C)(C)C5)C3)C(=O)C43CCN(C(C)=O)CC3)cc3ncn(C4CC4)c23)ccc1C [Example 159]
0.09 nM | Cc1ccc(Nc2nc(-c3ccc4c(c3)N([C@H]3C[C@@H](N5CCCCC5)C3)C(=O)C4(C)C)cc3ncn(C(C)C)c23)cc1C(=O)NC1(CF)CC1 [Example 174, 5-((6-(3,3-dimethyl-2-oxo-1-((1s,3s)-3-(piperidin-1-yl)cyclobutyl)indolin-6-yl)-3-isopropyl-3H-imidazo[4,5-c]pyridin-4-yl)amino)-N-(1-(fluoromethyl)cyclopropyl)-2-methylbenzamide]
0.2 nM | CNC(=O)c1cc(Nc2nc(-c3ccc4c(c3)N([C@H]3C[C@@H](N5CCC6(C5)CC6(F)F)C3)C(=O)C43CCN(C(C)=O)CC3)cc3ncn(C(C)C)c23)ccc1C (some centres unmarked) [Example 164]
0.07 nM | CC(C)n1cnc2cc(-c3cnc4c(c3)N([C@H]3C[C@@](C)(N5CCCC6(CC6)C5)C3)C(=O)C4(C)C)nc(Nc3cc(C(=O)NC4(C(F)F)CC4)c(Cl)c(F)c3F)c21 [Example 203, 2-Chloro-N-(1-(difluoromethyl)cyclopropyl)-5-((6-(3,3-dimethyl-1-((1s,3s)-3-methyl-3-(5-azaspiro[2.5]octan-5-yl)cyclobutyl)-2-oxo-2,3-dihydro-1H-pyrrolo[3,2-b]pyridin-6-yl)-3-isopropyl-3H-imidazo[4,5-c]pyridin-4-yl)amino)-3,4-difluorobenzamide]
0.05 nM | CC(C)n1cnc2cc(-c3ccc4c(c3)N([C@H]3C[C@@](C)(N5CCCCC5)C3)C(=O)C4(C)C)nc(Nc3cc(C(=O)NC4(C(F)F)CC4)cc(F)c3F)c21 [Example 243, N-(1-(difluoromethyl)cyclopropyl)-3-((6-(3,3-dimethyl-1-((1s,3s)-3-methyl-3-(piperidin-1-yl)cyclobutyl)-2-oxoindolin-6-yl)-3-isopropyl-3H-imidazo[4,5-c]pyridin-4-yl)amino)-4,5-difluorobenzamide]
0.08 nM | CNC(=O)c1cc(Nc2nc(-c3ccc4c(c3)N([C@H]3C[C@@H](NCC(C)(C)F)C3)C(=O)C4(C)C)cc3ncn(C(C)C)c23)ccc1C [Example 82]
0.1 nM | COCCNC(=O)c1cc(Nc2nc(-c3ccc4c(c3)N([C@H]3C[C@@H](N5CCCCC5)C3)C(=O)C4(C)C)cc3ncn(C(C)C)c23)ccc1C [Example 137]
0.2 nM | CNC(=O)c1cc(Nc2nc(-c3ccc4c(c3)N([C@H]3C[C@@H](N5CCCCC5)C3)C(=O)C43CCN(C4COC4)CC3)cc3ncn(C(C)C)c23)c(F)cc1C [Example 68]
0.09 nM | CNC(=O)c1cc(Nc2nc(-c3ccc4c(c3)N([C@H]3C[C@@H](N5CCCCC5)C3)C(=O)C43CCN(C(=O)C(C)C)CC3)cc3ncn(C4CC4)c23)ccc1C [Example 52]
0.1 nM | Cc1ccc(Nc2nc(-c3ccc4c(c3)N([C@H]3C[C@@H](N5CCCCC5)C3)C(=O)C4(C)C)cc3ncn(C(C)C)c23)cc1C(=O)NC1CCC1 [Example 2]
0.1 nM | CNC(=O)c1cc(Nc2nc(-c3ccc4c(c3)N([C@H]3C[C@@H](N5CCCCC5)C3)C(=O)C43CCN(C(=O)C4CC4)CC3)cc3ncn(C4CC4)c23)ccc1C [Example 51]
0.6 nM | CNC(=O)c1cc(Nc2nc(-c3ccc4c(c3)N([C@H]3C[C@@H](N5CCCCC5)C3)CC4(C)C)cc3ncn(C4CC4)c23)ccc1C [Example 58]
0.1 nM | CNC(=O)c1cc(Nc2nc(-c3ccc4c(c3)N([C@H]3C[C@@H](N5CCCCC5)C3)C(=O)C43CCOCC3)cc3ncn(C(C)C)c23)ccc1C [Example 123]
0.04 nM | Cc1c(C(=O)NC2(C(F)F)CC2)cc(Nc2nc(-c3cnc4c(c3)N([C@H]3C[C@@H](N5CCCCC5)C3)C(=O)C4(C)C)cc3ncn(C(C)C)c23)c(F)c1F [Example 246, N-(1-(difluoromethyl)cyclopropyl)-5-((6-(3,3-dimethyl-2-oxo-1-((1s,3s)-3-(piperidin-1-yl)cyclobutyl)-2,3-dihydro-1H-pyrrolo[3,2-b]pyridin-6-yl)-3-isopropyl-3H-imidazo[4,5-c]pyridin-4-yl)amino)-3,4-difluoro-2-methylbenzamide]
0.2 nM | COCCNC(=O)c1cc(Nc2nc(-c3ccc4c(c3)N([C@H]3C[C@@H](N5CCCCC5)C3)C(=O)C4(C)C)cc3ncn(C(C)C)c23)c(F)cc1C [Example 116]
0.06 nM | CNC(=O)c1cc(Nc2nc(-c3ccc4c(c3)N([C@H]3C[C@@H](N5CCCCC5)C3)C(=O)C43CCN(C(=O)C45CC(C4)C5)CC3)cc3ncn(C4CC4)c23)ccc1C [Example 156]
0.09 nM | CC(C)n1cnc2cc(-c3cnc4c(c3)N(C3CC(C)(N5CCC6C[C@@H]6C5)C3)C(=O)C4(C)C)nc(Nc3cc(C(=O)NC4(C(F)F)CC4)c(Cl)c(F)c3F)c21 (some centres unmarked) [Example 261, 5-((6-(1-((1s,3s)-3-(3-azabicyclo[4.1.0]heptan-3-yl)-3-methylcyclobutyl)-3,3-dimethyl-2-oxo-2,3-dihydro-1H-pyrrolo[3,2-b]pyridin-6-yl)-3-isopropyl-3H-imidazo[4,5-c]pyridin-4-yl)amino)-2-chloro-N-(1-(difluoromethyl)cyclopropyl)-3,4-difluorobenzamide]

SMILES | IC50
CNC(=O)c1cc(Nc2nc(-c3ccc4c(c3)N([C@H]3C[C@@H](N5CC[C@@H](F)C5)C3)C(=O)C43CCN(C4COC4)CC3)cc3ncn(C(C)C)c23)c(F)cc1C [Example 71] | 0.1 nM
Cc1cc(F)c(Nc2nc(-c3cnc4c(c3)N([C@H]3C[C@@](C)(N5C6CCC5COC6)C3)C(=O)C4(C)C)cc3ncn(C(C)C)c23)cc1C(=O)NC1(C(F)F)CC1 [Example 212, 5-((6-(1-((1s,3s)-3-(3-Oxa-8-azabicyclo[3.2.1]octan-8-yl)-3-methylcyclobutyl)-3,3-dimethyl-2-oxo-2,3-dihydro-1H-pyrrolo[3,2-b]pyridin-6-yl)-3-isopropyl-3H-imidazo[4,5-c]pyridin-4-yl)amino)-N-(1-(difluoromethyl)cyclopropyl)-4-fluoro-2-methylbenzamide] | 0.3 nM

Source: patent US11203591B2, “Substituted 6-azabenzimidazole compounds” (Gilead Sciences, Inc., priority 2018, dated 2021)
